Test system: VEGF-induced vascular leakage
Experiment: VEGF-induced vascular leakage in rabbit eyes
Format: in vivo
Details: single injection, day 60, FIG. 4G

aflibercept
activity against VEGF-induced vascular leakage: no longer showed activity

Source: patent publication US20200179285A1, “BIODEGRADABLE MICROPARTICLES FOR SUSTAINED DELIVERY OF ANTI-ANGIOGENIC PEPTIDE” (The Johns Hopkins University, priority 2017, published 2020)
